Test results reported in ChEMBL document CHEMBL1817560, “Selectivity of kinase inhibitor fragments” (J Med Chem, 2011).

How the values were obtained:
[1] = biological target: Epidermal growth factor receptor (Homo sapiens) (UniProt P00533); experiment: Inhibition of EGFR expressed in Escherichia coli or baculovirus-infected insect cells at 400 uM by TR-FRET assay
[2] = biological target: Receptor tyrosine-protein kinase erbB-2 (Homo sapiens) (UniProt P04626); experiment: Inhibition of ErbB2 expressed in Escherichia coli or baculovirus-infected insect cells at 400 uM by TR-FRET assay
Receptor tyrosine-protein kinase erbB-2 (Homo sapiens), sequence (P04626 whole entry): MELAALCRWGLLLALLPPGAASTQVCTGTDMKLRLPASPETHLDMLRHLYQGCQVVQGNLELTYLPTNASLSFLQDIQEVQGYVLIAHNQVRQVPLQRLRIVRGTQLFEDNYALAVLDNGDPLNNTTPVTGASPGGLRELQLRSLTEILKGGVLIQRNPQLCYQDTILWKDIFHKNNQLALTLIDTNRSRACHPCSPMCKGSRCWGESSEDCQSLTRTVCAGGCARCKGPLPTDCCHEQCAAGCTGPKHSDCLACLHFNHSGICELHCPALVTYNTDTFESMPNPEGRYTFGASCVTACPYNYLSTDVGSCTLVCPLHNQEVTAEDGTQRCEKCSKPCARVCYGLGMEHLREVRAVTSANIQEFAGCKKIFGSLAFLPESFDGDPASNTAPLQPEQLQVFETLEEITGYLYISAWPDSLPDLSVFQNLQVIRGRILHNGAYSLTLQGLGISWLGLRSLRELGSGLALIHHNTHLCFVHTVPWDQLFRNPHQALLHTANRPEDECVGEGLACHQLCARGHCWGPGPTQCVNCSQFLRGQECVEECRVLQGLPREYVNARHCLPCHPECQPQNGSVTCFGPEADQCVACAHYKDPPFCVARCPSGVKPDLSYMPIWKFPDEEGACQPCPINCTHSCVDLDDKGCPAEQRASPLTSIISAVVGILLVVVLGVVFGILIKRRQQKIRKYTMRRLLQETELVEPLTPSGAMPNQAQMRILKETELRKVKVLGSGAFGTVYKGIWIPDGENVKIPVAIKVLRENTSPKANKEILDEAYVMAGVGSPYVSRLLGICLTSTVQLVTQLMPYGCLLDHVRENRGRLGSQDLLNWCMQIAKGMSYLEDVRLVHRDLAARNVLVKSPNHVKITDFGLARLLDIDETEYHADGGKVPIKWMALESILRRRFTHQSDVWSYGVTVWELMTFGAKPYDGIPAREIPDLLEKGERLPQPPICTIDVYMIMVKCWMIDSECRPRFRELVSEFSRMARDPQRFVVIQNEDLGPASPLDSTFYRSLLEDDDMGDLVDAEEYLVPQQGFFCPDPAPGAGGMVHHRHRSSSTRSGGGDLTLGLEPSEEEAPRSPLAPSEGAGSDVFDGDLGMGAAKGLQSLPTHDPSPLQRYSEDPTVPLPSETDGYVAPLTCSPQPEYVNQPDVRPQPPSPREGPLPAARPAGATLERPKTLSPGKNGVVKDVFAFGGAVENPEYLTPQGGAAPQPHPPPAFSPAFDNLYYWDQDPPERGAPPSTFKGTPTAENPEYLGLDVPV

[3] = biological target: T1, Tyrosine-protein kinase JAK3 (Homo sapiens) (UniProt P52333); experiment: Inhibition of JAK3 expressed in Escherichia coli or baculovirus-infected insect cells at 667 uM by TR-FRET assay
T1 sequence (whole entry): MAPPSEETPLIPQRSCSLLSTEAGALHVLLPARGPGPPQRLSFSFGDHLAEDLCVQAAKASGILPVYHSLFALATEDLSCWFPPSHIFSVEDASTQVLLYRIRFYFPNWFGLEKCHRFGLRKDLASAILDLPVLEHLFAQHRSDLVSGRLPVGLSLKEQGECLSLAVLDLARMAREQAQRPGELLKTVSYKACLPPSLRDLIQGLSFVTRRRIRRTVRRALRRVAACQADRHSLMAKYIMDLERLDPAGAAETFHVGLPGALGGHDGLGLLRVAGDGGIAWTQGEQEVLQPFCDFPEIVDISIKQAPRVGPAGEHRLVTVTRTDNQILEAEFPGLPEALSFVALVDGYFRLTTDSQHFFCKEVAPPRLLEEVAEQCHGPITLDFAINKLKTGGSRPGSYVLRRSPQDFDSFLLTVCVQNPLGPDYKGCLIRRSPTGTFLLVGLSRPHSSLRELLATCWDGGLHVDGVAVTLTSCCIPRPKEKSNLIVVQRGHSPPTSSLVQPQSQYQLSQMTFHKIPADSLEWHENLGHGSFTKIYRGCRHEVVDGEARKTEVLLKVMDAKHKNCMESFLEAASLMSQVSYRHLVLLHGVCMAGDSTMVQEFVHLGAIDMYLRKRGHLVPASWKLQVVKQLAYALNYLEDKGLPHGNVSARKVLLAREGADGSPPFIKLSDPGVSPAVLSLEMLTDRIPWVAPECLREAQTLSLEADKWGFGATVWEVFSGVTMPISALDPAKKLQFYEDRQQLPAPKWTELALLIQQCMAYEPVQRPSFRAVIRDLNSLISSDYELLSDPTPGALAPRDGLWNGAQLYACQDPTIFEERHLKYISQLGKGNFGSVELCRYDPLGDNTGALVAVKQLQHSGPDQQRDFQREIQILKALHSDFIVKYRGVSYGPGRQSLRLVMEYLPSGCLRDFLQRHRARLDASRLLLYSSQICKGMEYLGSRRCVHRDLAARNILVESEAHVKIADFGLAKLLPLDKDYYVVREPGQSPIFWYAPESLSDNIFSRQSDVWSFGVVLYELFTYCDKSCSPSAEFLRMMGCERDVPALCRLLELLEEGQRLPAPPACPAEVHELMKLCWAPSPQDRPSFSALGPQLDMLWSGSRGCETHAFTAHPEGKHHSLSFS

[4] = biological target: T2, Inhibitor of nuclear factor kappa-B kinase subunit beta (Homo sapiens) (UniProt O14920); experiment: Inhibition of IKK-beta expressed in Escherichia coli or baculovirus-infected insect cells at 667 uM by TR-FRET assay
T2 sequence (whole entry): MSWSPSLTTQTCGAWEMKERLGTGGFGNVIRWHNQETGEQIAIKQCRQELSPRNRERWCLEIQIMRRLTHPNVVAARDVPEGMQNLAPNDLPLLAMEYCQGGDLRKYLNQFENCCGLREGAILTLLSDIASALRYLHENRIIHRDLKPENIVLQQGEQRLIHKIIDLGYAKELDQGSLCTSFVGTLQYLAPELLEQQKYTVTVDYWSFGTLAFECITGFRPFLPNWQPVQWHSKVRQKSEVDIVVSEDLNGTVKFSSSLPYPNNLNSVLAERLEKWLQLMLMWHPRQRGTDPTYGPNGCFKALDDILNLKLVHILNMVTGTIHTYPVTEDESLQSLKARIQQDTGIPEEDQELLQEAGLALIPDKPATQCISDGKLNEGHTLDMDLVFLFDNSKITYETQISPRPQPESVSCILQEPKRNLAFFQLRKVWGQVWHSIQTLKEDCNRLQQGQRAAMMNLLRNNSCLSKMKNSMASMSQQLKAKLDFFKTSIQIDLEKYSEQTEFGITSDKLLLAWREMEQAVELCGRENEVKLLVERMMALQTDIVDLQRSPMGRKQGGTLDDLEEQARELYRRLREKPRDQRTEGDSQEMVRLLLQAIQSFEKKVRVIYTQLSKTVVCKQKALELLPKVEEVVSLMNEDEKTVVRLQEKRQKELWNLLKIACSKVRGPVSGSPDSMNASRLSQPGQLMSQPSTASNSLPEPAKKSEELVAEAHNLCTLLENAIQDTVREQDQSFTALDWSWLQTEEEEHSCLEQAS

[5] = biological target: Serine/threonine-protein kinase PAK 2 (Homo sapiens) (UniProt Q13177); experiment: Inhibition of PAK2 expressed in Escherichia coli or baculovirus-infected insect cells at 400 uM by IMAP assay
Serine/threonine-protein kinase PAK 2 (Homo sapiens), sequence (Q13177 whole entry): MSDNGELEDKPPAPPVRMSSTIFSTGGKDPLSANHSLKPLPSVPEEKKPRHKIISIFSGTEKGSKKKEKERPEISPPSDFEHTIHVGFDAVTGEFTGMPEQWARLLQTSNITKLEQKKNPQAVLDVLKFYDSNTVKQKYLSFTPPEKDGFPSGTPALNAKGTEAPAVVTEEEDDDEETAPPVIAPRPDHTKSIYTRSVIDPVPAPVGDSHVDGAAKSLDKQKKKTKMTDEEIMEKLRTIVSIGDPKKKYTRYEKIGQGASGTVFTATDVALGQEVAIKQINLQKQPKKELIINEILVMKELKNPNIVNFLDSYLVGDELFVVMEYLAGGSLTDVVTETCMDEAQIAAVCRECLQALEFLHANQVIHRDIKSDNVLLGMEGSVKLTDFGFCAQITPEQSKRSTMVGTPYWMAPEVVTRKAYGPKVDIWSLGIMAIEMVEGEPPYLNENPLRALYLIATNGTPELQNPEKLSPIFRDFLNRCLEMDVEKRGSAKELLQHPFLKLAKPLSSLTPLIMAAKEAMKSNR

[6] = biological target: Rho-associated protein kinase 1 (Homo sapiens) (UniProt Q13464); experiment: Inhibition of ROCK1 expressed in Escherichia coli or baculovirus-infected insect cells at 400 uM by IMAP assay
Rho-associated protein kinase 1 (Homo sapiens), sequence (Q13464 2-1354 limits assumed): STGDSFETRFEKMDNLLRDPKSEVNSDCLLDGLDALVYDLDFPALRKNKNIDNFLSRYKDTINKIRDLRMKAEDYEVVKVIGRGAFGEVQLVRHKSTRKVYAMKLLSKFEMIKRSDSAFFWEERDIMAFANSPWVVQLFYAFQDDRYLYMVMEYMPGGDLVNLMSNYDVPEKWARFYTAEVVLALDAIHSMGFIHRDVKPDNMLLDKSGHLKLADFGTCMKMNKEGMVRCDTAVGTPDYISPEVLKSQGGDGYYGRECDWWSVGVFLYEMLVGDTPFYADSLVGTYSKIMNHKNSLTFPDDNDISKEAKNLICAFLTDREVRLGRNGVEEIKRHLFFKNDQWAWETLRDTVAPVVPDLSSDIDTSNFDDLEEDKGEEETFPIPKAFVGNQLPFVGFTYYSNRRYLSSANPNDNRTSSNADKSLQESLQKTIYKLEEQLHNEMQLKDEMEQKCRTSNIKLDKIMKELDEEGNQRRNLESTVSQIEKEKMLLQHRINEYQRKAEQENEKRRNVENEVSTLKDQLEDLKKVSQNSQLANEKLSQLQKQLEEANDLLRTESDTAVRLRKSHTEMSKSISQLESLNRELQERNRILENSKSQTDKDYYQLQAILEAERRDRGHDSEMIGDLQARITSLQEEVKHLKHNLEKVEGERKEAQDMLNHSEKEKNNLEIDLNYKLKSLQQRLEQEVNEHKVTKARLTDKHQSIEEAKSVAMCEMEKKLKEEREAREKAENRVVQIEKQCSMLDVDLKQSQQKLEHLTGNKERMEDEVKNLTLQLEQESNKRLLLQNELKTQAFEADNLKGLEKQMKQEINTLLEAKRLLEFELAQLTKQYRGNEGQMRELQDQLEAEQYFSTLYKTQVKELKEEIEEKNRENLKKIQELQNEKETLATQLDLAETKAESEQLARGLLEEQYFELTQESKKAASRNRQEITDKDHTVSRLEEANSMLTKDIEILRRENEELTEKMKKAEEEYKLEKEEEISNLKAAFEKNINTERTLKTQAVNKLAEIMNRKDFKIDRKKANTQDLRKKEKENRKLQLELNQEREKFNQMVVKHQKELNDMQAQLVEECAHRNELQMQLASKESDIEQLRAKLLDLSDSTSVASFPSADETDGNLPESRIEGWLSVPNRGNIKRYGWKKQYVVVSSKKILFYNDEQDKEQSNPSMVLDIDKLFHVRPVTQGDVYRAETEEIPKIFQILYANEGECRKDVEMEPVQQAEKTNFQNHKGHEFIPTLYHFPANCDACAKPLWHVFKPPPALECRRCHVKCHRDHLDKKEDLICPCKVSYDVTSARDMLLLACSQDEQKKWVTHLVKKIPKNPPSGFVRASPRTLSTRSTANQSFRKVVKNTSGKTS

[7] = biological target: Aurora kinase B (Homo sapiens) (UniProt Q96GD4); experiment: Inhibition of AurB expressed in Escherichia coli or baculovirus-infected insect cells at 400 uM by IMAP assay
Aurora kinase B (Homo sapiens), sequence (Q96GD4 whole entry): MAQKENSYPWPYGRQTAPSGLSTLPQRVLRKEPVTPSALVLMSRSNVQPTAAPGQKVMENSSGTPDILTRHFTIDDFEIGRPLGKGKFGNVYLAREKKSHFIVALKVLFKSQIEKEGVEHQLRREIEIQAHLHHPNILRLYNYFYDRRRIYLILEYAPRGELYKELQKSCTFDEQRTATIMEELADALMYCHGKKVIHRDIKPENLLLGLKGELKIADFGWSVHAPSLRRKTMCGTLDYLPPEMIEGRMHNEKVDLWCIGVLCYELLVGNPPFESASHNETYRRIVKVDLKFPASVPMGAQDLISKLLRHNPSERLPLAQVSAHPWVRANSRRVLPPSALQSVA

[8] = biological target: Focal adhesion kinase 1 (Homo sapiens) (UniProt Q05397); experiment: Inhibition of FAK expressed in Escherichia coli or baculovirus-infected insect cells at 400 uM by TR-FRET assay
Focal adhesion kinase 1 (Homo sapiens), sequence (Q05397 2-1052 limits assumed): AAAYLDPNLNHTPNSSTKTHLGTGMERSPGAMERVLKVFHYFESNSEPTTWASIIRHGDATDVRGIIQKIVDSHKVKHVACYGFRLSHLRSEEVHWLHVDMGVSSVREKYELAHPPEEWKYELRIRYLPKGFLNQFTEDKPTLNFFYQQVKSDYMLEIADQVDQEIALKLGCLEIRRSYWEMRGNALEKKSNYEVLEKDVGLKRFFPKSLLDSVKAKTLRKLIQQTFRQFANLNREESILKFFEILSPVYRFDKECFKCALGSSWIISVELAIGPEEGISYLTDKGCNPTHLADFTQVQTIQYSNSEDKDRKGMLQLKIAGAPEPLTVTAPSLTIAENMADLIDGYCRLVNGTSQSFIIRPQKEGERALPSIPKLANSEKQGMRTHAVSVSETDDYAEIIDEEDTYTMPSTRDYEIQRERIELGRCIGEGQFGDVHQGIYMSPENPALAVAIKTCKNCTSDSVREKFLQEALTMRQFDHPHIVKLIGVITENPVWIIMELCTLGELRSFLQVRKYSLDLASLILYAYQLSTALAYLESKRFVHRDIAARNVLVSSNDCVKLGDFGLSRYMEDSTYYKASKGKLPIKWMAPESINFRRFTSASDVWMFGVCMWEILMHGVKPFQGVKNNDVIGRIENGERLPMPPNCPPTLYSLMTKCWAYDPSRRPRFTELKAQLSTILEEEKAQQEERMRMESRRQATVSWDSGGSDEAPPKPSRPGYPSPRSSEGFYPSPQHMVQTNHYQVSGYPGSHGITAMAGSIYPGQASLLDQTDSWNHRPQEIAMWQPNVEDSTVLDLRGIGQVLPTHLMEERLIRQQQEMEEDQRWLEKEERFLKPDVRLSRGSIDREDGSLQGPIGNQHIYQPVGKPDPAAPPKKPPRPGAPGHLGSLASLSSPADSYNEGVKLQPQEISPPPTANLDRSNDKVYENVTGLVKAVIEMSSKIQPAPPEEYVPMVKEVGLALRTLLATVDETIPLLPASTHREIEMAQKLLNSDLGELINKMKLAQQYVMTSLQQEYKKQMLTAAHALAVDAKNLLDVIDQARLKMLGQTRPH

inhibition [1] [%]	inhibition [2] [%]	inhibition [3] [%]	inhibition [4] [%]	inhibition [5] [%]	inhibition [6] [%]	inhibition [7] [%]	inhibition [8] [%]	Compound
11	3	78	22	36	80	99	5	Nc1[nH]cnc2ncnc1-2
0	2	0	0	5	5	30	30	O=C(Nc1ccccc1)Nc1ccccc1
0	1	72	47	16	65	98	13	Nc1[nH]nc2ccccc12
4	0	0	2	0	9	31	3	CC(C)(C)c1cc(NC(=O)Nc2ccccc2)no1
25	0	5	0	3	25	22	1	c1n[nH]c2c1CCCC2
36	25	74	57	32	93	97	33	Nc1ccc2ncc(-c3ccccc3)n2n1
0	0	53	29	4	76	94	3	c1cnc2[nH]ccc2c1
5	5	0	0	2	3	15	6	Cc1ccc(C(=O)NC2CC2)cc1F
0	0	0	0	0	7	12	4	Cc1ccc(NC(=O)Nc2cccc(C(F)(F)F)c2)cc1

Continued, compound first:

Compound	inhibition [1] [%]	inhibition [2] [%]	inhibition [3] [%]	inhibition [4] [%]	inhibition [5] [%]	inhibition [6] [%]	inhibition [7] [%]	inhibition [8] [%]
c1ccc2[nH]ncc2c1 [INDAZOLE]	0	0	29	15	5	80	81	3
Nc1n[nH]c2ncccc12	18	9	54	65	7	46	100	7
O=C(Nc1ccccc1)Nc1cccc(C(F)(F)F)c1	4	0	0	0	5	8	12	6
c1ccc(Nc2ncccn2)cc1	0	4	36	8	3	10	97	10
c1ccc(Nc2ccccc2)cc1	5	0	2	0	4	0	–	0
c1ccc(-c2cnc3nccnn23)cc1	8	0	0	0	0	0	0	0
Cc1ccc(NC(=O)Nc2cc(C(C)(C)C)nn2-c2ccccc2)cc1	0	2	0	3	0	6	0	6
Nc1ncccc1OCc1ccccc1	9	21	54	0	17	64	77	6
